Test results: US20080305049A1, “Mri Contrast Agents for Diagnosis and Prognosis of Tumors” (priority 2005, published 2008)
“Also recorded” adds a separate entry of the source.

Columns and labels:
[1] = molecular target: T1, estrogen receptor (ER)-α in MCF7 cells (Homo sapiens, UniProt P03372); assay: Western blot of ER-α level relative to tubulin; assay type: cell-based; details: 6 hours after treatment
T1 construct: endogenous in cells; host or cells: MCF7 human breast cancer cells
T1 sequence (P03372 1-595): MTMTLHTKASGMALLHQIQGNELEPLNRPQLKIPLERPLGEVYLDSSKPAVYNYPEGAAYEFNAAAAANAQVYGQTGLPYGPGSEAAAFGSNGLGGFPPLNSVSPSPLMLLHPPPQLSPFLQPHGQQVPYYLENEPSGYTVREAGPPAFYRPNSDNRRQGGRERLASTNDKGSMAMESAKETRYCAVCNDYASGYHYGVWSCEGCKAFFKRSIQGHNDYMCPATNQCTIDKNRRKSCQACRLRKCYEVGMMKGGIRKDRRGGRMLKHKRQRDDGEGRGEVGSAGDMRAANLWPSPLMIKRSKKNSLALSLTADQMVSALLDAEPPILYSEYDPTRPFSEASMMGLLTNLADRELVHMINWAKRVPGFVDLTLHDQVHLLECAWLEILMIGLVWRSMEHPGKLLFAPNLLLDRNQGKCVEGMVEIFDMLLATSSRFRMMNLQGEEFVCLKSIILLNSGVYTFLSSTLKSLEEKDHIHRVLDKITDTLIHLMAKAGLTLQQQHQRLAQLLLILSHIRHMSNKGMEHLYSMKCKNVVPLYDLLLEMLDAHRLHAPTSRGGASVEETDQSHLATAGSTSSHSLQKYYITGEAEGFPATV
Source text: FIG. 10B is a graph showing the quantitative analysis of the blots in terms of ER expression relative to tubulin expression under the various treatments as indicated in the figure.
We then carried out a Western blot for determining the level of the estrogen receptor protein using an anti-ER antibody to identify ER in the blot. […] FIG. 10A depicts the Western blot and FIG. 10B depicts quantitation of the blot: the amount of ER relative to tubulin, assuming tubulin is constant under all treatment manipulations.

[2] = molecular target: T2, human recombinant ER (ERα) (Homo sapiens, UniProt P03372); assay: competitive radiometric binding assay with tritiated estradiol; details: for IC50 / Ki: human recombinant ER; for IC50: read-out: IC50, concentration of competing ligand required to replace half of the ER bound tritiated estradiol; for Ki: read-out: Ki, calculated equilibrium concentration of competing ligand that binds half of the ER binding sites
T2 sequence (P03372 1-595): T1 sequence (P03372 1-595)
Protocol: This procedure yields IC50 displacement values for the inhibition of the binding of tritiated estradiol to the ER. Low IC50 values correlates to high binding affinities.
The binding affinities were determined by performing a competitive radiometric-binding assay using tritiated estradiol and human recombinant ER. […] Table 1 presents the concentration of the competing ligand required to replace half of the ER bound tritiated estradiol, IC50, and the calculated equilibrium concentration of the competing ligand that will bind to half of the ER binding sites, Ki.

[3] = system: MCF7, T47D and ZR-75-1 ER+ human breast cancer cells; assay: proliferation of ER+ human breast cancer cells (MTT method); assay type: cell-based; details: for agonistic or antagonistic effect on proliferation: 2 μM
Protocol: The agonistic or antagonistic effects of the conjugates and metal complexes thereof were studied by their capacity to enhance or arrest cell growth, respectively.
The vehicle (water) was added as control and served to normalize the changes in cell number.

[4] = system: MDA-MB-231 cells; assay: proliferation of ER− human breast cancer cells (MTT method)
Protocol: The number of cells was determined spectrophotometrically using the MTT [3-(4,5-dimethylthiazol-2-yl)-2,5-diphenyltetrazolium bromide] method. The samples are read using an ELISA plate reader at a wavelength of 570 nm. The amount of color produced is directly proportional to the number of viable cells.

[5] = toxicology after intravenous injection; assay type: in vivo, CD1-NU mice
Source text: (§1) Animals: CD1-NU immunodeficient female mice (6-10 weeks old, 20-25 g weight) were provided by the Animal Unit of the Weizmann Institute of Science. During the MRI experiments, the animals were anesthetized by inhalation of 1% Isoflurane in an O2:N2O (3:7) mixture, applied through a nose cone. All animals were handled according to the regulations formulated by the Institutional Animal Care and Use Committee (IACUC) of the Weizmann Institute of Science (Rehovot, Israel).
Toxicology: The probes (e.g. Gd complex 7) were injected into the tail vein of CD1-NU mice at a varying dose in the range of 0.024 to 1.0 mmol/kg weight.

[6] = system: orthotopic ER+ MCF7 breast tumor; assay: in vivo MRI monitoring of distribution and binding in mice with orthotopic MCF7 breast tumor; parameters: species or system CD1-NU immunodeficient female mice
Source text: as §1
(§2) Tumors: ER^+ human breast cancer MCF-7 cells were implanted orthotopically into the mammary gland of the CD1-NU immunodeficient female mice, as previously described (Paran et al., 2004). The mice were ovariectomized to eliminate any […] estrogen. Initially a pellet of 17β-estradiol (Innovative Research, Florida) was implanted before the cells were injected, to ensure growth of the tumors. Within 3 weeks, tumors developed to a size of about ˜0.5 ml and consisted of highly proliferating cells. At this stage we removed the estrogen pellet and after a week administered the MRI probe. The extent of accumulation in the tumors was studied in vivo and in excised tumors and was then compared to results obtained by the standard immunostaining technique.
(§3) MRI: The accumulation of the MRI probe was tested by scanning the tumors before the injection of the probe and at times after the injection, using T1 weighted and T2 weighted pulse sequences. MR images were recorded with a 4.7 Tesla scanner (Bruker; Biospec 4.7 T/30 cm bore, dedicated Doty resonator, 3 cm diameter, 200 MHz for protons). The MRI parameters for scanning T2-weighted images were: 2D Spin echo with: TE/TR=69 msec/4000 msec, field of view (FOV) 5 cm, slice thickness 1.2 mm and 128×256 matrix. For T1 measurements two pulse sequences were employed: 1. Inversion recovery pulse sequence with varying T1 (n=20) ranging from 10 to 10000 msec, TE/TR=3.15 msec/15 msec, flip angle 10 degrees; 2. Fast gradient echo sequence. The spatial resolution was as in the T2 weighted image except the matrix was 128×128.
(§4) Distribution of the MR probes: The distribution of the Gd complex 7 in the blood, inner organs and the tumors was monitored over a period of 24 h after a bolus injection of 7 into the tail vein at a dose ranging from 0.024 to 0.4 mmol/kg.
(§5) The contrast agent distribution was monitored, alternating between two pulse sequences: 1. T1-weighted, 3D gradient echo with TE/TR of 4.3/18.3 ms; a 30° flip angle, 2. 2D inversion or saturation recovery sequence with varying T1 (n=20) ranging from 10 to 10000 msec, and gradient echo acquisition with TE/TR of 3.5/15 msec and 100 flip angel. The latter sequence enabled us to map the T1 relaxation time. The spatial resolution was the same for both sequences and during the whole experiment time, namely, 0.2×0.4×1.2 mm^3. Susceptibility gradient echo and T2 weighted spin echo protocols were employed to generate the MR images of the animal.
(§6) Several protocols of administration of the Gd complex 7 were examined: a high and low dose bolus injection of 0.4 mmol/kg and 0.024 mmol/kg, respectively (FIGS. 7 and 8), and a slow infusion (drip) protocol over 60 min of the high dose.
(§7) To determine the ER-binding of 7 administered at low concentration (0.024 mmol/kg), we performed measurements up to 24 after its administration, when all the tissues appeared to be cleared from the probe. FIGS. 7A-7B show the time course of the T1 relaxation in the bladder, orthotopic MCF7 breast tumor and muscle of a female CD1-NU immunodeficient mouse after a bolus administration of a low dose of 7 (0.024 mmol/kg) (7B) and the area of each organ as marked on the upper T2-weighted image (FIG. 7A). The images at 0, 0.5 and 2.5 h were recorded with the anaesthetized mouse in the same position. After the 2.5 h measurement, the mouse was returned to its cage and was again scanned under anesthesia at the 7 and 24 hours time points. […] The central slice of each organ is presented. […]

[7] = as above; parameters: species or system CD1-NU immunodeficient female mice; details: female, CD1-NU, mouse, tumor (orthotopic MCF7 breast tumor), intravenous; 24 hours after bolus 0.024 mmol/kg, calculated from relaxation rates; read-out: apparent concentration in the tumor
Source text: as §1, §2, §3, §4, §5, §6, §7

[8] = system: rat uterus; assay: MRI of the uterus of ovariectomized rats; assay type: in vivo; details: 0.024 mmol/kg
Protocol: We developed and applied in vivo tests of the Gd complex 7 in the classical target organ of estrogen (the rat uterus). […] In order to be able to delineate the uterus, we applied a newly developed segmentation algorithm that enables us to automatically monitor changes in the entire uterine volume and in the changing nuclear relaxation rates due to interaction with 7. […] The endometrium volume increased by 45%, over the entire monitoring period of 5.5 hours, indicating response to the Gd complex 7, as shown in FIGS. 11A-11E.
FIG. 11A depicts the T2-weighted images prior to administration and FIG. 11B depicts the T2-weighted images after 5 hours of administration of compound 7 (the endometrium is circled in green) with the corresponding 3D automatically delineated right horn (FIGS. 11C and 11D) and the corresponding changes in the volume during the entire time course (FIG. 11E).

[9] = T1 and T2 relaxivity of water at 4.7 Tesla; assay type: physicochemical
Protocol: The T1 and T2 relaxivity of the MRI probes, i.e., the Gd complexes of the invention, were measured in saline solutions using standard protocols (i.e inversion recovery for T1 relaxivity and Carr-Purcell-Meiboom-Gill (CPMG) for T2 relaxivity).
The capacity of the Gd complex 7 to serve as a relaxation contrast agent was determined by measuring its relaxivity. […] For the T1 relaxivity measurement, a spin echo sequence was employed with a varying repetition time-TR (11 TRs, from 50 to 15,000 msec) and a fixed echo time of 23 msec.
The T1 relaxivity was determined from the slope.
We determined the MRI properties of the novel paramagnetic ER ligands. T1 and T2 relaxation rates of the water protons were measured as a function of the concentration of the Gd complex 7.

[10] = bolus 0.4 mmol/kg, about 5 hours

For `C[C@]12CCC3c4ccc(O)cc4CCC3C1CC[C@@]2(O)C#Cc1cc(CN(CC(=O)O)CC(=O)O)nc(CN(CC(=O)O)CC(=O)O)c1` (stereo partly shown) [Compound 6], the “effect on ER-α level” value [1] was “induced partial degradation of the receptor; also recorded: induce ER reduction”, the IC50 [2] was 4400 nM and the Ki [2] was 400 nM. For the same compound, the “dose at which induction of proliferation occurred” value ([3]; ER+ human breast cancer cells) was “nanomolar”, the “stimulation of cell growth” value ([3]; MCF7, T47D, ZR-75-1, 30 nM or 1 μM) was “stimulated the growth of the cells in a similar manner to that of estrogen” and the “agonistic or antagonistic effect on proliferation” value ([3]; MCF7, T47D) was “agonistic”. For the same compound, the toxicity to cells ([3]; high concentrations) was “toxic at high concentrations” and the “sensitivity of proliferation of ER− cells” value (shortened to “sensitivity”) [4] was “neither sensitive”.
With `C[C@]12CC[C@@H]3c4ccc(O)cc4C[C@@H](CCCCCCCCC[S+]([O-])CCCC(F)(F)C(F)(F)F)[C@H]3[C@@H]1CC[C@@H]2O` (stereo partly shown) [ICI-182780, reference compound] the “effect on ER-α level” value [1] was “down regulation”.
In the case of `C[C@]12CC[C@@H]3c4ccc(O)cc4CC[C@H]3[C@@H]1CC[C@@H]2O` [17β-estradiol, reference compound], the “sensitivity” value [4] is reported as “neither sensitive”.
With `CC/C(=C(\c1ccc(C#Cc2cc(CN(CC(=O)O)CC(=O)O)nc(CN(CC(=O)O)CC(=O)O)c2)cc1)c1ccc(OCCN(C)C)cc1)c1ccccc1` [Compound 16] the “effect on ER-α level” value [1] was “acted like tamoxifen; also recorded: do not affect ER level”, the IC50 [2] was 5300 nM and the Ki [2] was 480 nM. For the same compound, the “hormonal activity (summary statement)” value [3] was “antagonist to estrogen” and the “agonistic or antagonistic effect on proliferation” value ([3]; MCF7, T47D) was “did not elicit an estrogenic effect”.
For `CC12CCC3c4ccc(O)cc4CCC3C1CCC2(O)C#Cc1cc(CN(CC(=O)O)CC(=O)O)nc(CN(CC(=O)O)CC(=O)O)c1` (stereo not shown) [Compound 7], the “effect on ER-α level” value [1] was “induced partial degradation of the receptor; also recorded: induce ER reduction”, the “toxicity (summary statement)” value ([5]; mice and rats) was “non toxic in mice and rats” and the “tolerability of repetitive administration” value ([5]; repetitive administration 3-7 days apart) was “appeared to be harmless”. For the same compound, the “lethality and adverse effects” value ([5]; up to 0.4 mmol/kg, intravenous, CD1-NU mice) was “not lethal and does not cause obvious adverse effects; also recorded: non-toxic”, the “binding affinity to ER (in words)” value [2] was “strong binding affinity to ER, comparable to that of tamoxifen” and the “final concentration in tumor versus muscle” value ([6]; 2 h after 1 hour slow infusion of 0.4 mmol/kg) was “similar”. The “muscle T1 relaxation rate (R1)” value ([6]; 24 hours after 0.024 mmol/kg) was “returned to that measured before”, the “tumor T1 relaxation rate (R1) increase” value ([6]; 24 hours after 0.024 mmol/kg) was “small but persistent” and the “residual amount in the muscle” value ([6]; 24 hours after bolus 0.024 mmol/kg) was “no residual amount”. The “clearance through the kidneys into the urine compared with GdDTPA” value ([6]; bolus 0.4 mmol/kg) was “several folds slower”, the “time of full clearance after administration” value ([6]; bolus 0.4 mmol/kg) was 24 h and the “MRI signal enhancement in the muscle” value [6, 10] was “declined close to pre-contrast administration”. The “MRI signal enhancement in the tumor” value [6, 10] was “persisted throughout the experimental time”, the concentration at 24 h [7] was 2500 nM and the “effect in the uterus” value [8] was “agonistic effect in the uterus”. For the same compound, the “increase of endometrium volume” value ([8]; over 5.5 hours) was 45%, the T1 relaxivity [9] was 7.99 ± 0.05 mM⁻¹ s⁻¹ and the T2 relaxivity [9] was 30.8 ± 1.0 mM⁻¹ s⁻¹. For the same compound, the “sensitivity” value [4] was “neither sensitive”.
